Laboratory results as given in publication PMC6167311, “Structure of the NDH-2 – HQNO inhibited complex provides molecular insight into quinone-binding site inhibitors” (Biochimica et Biophysica Acta, 2018).

Legend:
Type in all cases: biochemical
[1] = target: T1, NDH-2 (type II NADH:quinone oxidoreductase) (Caldalkalibacillus thermarum, UniProt F5L3B8, I379E); experiment: NADH:menadione oxidoreduction assay, […] menadione, […] NADH
T1 construct: gene CathTA2_0279

[2] = target: T2, NDH-2 (type II NADH:quinone oxidoreductase) (Caldalkalibacillus thermarum, UniProt F5L3B8); experiment: co-crystal structure at […] Å; IC50 in NADH:menadione oxidoreduction assay ([…] menadione) with purified enzyme
T2 construct: gene CathTA2_0279

[3] = target: T2, NDH-2 (type II NADH:quinone oxidoreductase); experiment: NADH:menadione oxidoreduction turnover of purified enzyme ([…] s^−[…] at […] MD)

T2 sequence (F5L3B8 entry or part of it): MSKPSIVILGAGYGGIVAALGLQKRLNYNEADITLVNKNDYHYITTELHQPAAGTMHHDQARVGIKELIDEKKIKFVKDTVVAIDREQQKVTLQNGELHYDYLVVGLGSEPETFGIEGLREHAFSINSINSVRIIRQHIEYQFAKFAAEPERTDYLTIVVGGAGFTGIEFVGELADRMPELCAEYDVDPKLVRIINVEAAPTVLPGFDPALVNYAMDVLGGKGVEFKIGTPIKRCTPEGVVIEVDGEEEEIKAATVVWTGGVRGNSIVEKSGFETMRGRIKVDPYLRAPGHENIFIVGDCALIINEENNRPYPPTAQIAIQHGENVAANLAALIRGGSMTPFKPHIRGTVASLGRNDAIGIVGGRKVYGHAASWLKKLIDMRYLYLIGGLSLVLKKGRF
T1 sequence (F5L3B8 entry or part of it I379E): as the sequence (F5L3B8 entry or part of it) above

Row | SMILES | IC50 [1] | IC50 [2] | NADH:menadione oxidoreduction turnover of purified enzyme (959.3 s^-1 at 400 μM) [3]
1 | CCCCCCCc1cc(O)c2ccccc2[n+]1[O-] [compound 1, 2-heptyl-4-hydroxyquinoline-N-oxide] | 54.3 ± 1.2 µM | 7.3 ± 1.2 µM | 
2 | CC1=CC(=O)c2ccccc2C1=O [menadione] |  |  | 959.3 s⁻¹
